Here are results for four molecules from ChEMBL document CHEMBL1201862, “PubChem BioAssay data set” (2004).

The structures appear in SMILES notation.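 Dose response: 5 concentrations. Exposure: 48 h. Format: 96-well plates. Endpoint: linear interpolation; highest concentration if not reached. GI50: concentration for 50% inhibition of growth.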 Active and inactive are the calls of the source. Rule as the data show it: active = GI50 up to about 1.1 µM and inactive = higher.

Test systems include A498; A549; HOP-62; HT-29; K562; LOX IMVI; MCF7; MDA-MB-231; MDA-MB-435; MOLT-4; RPMI-8226; RXF 393; SF-268; SF-539; SK-MEL-28; SK-MEL-5; SR; SW-620; T47D; UACC-257.
Experiment in all cases: inhibition of tumour cell growth, NCI panel, 48 h

Turning to `Clc1ccc2oc(CCC3CCCCC3)nc2c1`, the GI50 in the assay on A498 is 37.8 µM (inactive); in the assay on A549, 31.6 µM (inactive); in the assay on HOP-62 it was 22.3 µM (inactive); with HT-29, 23.5 µM (inactive); in the assay on K562 it was 38.2 µM (inactive); in the assay on LOX IMVI, 4.7 µM (inactive). Also, the GI50 in the assay with MCF7 is 26.1 µM (inactive); in the assay on MDA-MB-231, 28.3 µM (inactive); with MDA-MB-435, 27.3 µM (inactive); in the assay with MOLT-4, 16.4 µM (inactive); in the assay with RPMI-8226, 37.3 µM (inactive); in the assay on RXF 393 it was 15.1 µM (inactive). The GI50 in the assay with SF-268 is 64.7 µM (inactive); in the assay on SF-539, 32.1 µM (inactive); in the assay with SK-MEL-28, 33.3 µM (inactive); in the assay on SK-MEL-5, 16.9 µM (inactive); in the assay on SR, 19.7 µM (inactive); in the assay with SW-620 it was 31.8 µM (inactive). The GI50 with T47D is 20.5 µM (inactive); with UACC-257, 30.6 µM (inactive).
With `C[C@@H]1Nc2cc(NC(=O)OCCF)nc(N)c2N=C1c1ccccc1`, the GI50 was 19.8 µM (inactive) in the assay on A498; < 0.0001 µM (active) in the assay with A549; < 0.0001 µM (active) in the assay on HOP-62; < 0.0001 µM (active) in the assay on HT-29; < 0.0001 µM (active) with K562; < 0.0001 µM (active) in the assay on LOX IMVI. For the same molecule, the GI50 was 0.0208 µM (active) with MCF7; < 0.0001 µM (active) in the assay on MDA-MB-231; < 0.0001 µM (active) in the assay with MDA-MB-435; < 0.0001 µM (active) in the assay with MOLT-4; < 0.0001 µM (active) in the assay on RPMI-8226; 29 µM (inactive) in the assay on RXF 393. Also, the GI50 was < 0.0001 µM (active) with SF-268; < 0.0001 µM (active) in the assay with SF-539; 88.7 µM (inactive) in the assay on SK-MEL-28; < 0.0001 µM (active) with SK-MEL-5; < 0.0001 µM (active) with SR; < 0.0001 µM (active) with SW-620. In addition, the values for the GI50 with T47D and in the assay with UACC-257 were 61.9 µM (inactive) and < 0.01 µM (active), respectively.
Regarding `CCCCc1ccc(Nc2nc(N)c3ncn(COCCO)c3n2)cc1`, the GI50 with A498 is 28.2 µM (inactive); in the assay with A549 it was 44.3 µM (inactive); with HOP-62, 17.1 µM (inactive); in the assay on HT-29, 24.4 µM (inactive); in the assay with K562, 7.01 µM (inactive); with LOX IMVI, 18.9 µM (inactive). Further, the GI50 was 37.4 µM (inactive) with MCF7; 29 µM (inactive) with MDA-MB-231; 22.1 µM (inactive) in the assay on MDA-MB-435; 33 µM (inactive) in the assay with MOLT-4; 30.6 µM (inactive) in the assay on RPMI-8226; 30.1 µM (inactive) in the assay on RXF 393. Moreover, the GI50 with SF-268 was 33 µM (inactive); with SF-539, 28.2 µM (inactive); in the assay with SK-MEL-5, 18 µM (inactive); in the assay on SR, 18 µM (inactive); with SW-620, 26.1 µM (inactive); in the assay with T47D, 24.4 µM (inactive). In addition, the GI50 in the assay with UACC-257 is 21.3 µM (inactive).
Consider `CC[C@@]1(O)C(=O)OCc2c1cc1n(c2=O)Cc2c-1nc1ccccc1c2CC[Si](C)(C)C` [COSITECAN], for which the GI50 in the assay on A498 was < 0.01 µM (active); with A549, < 0.01 µM (active); with HOP-62, < 0.01 µM (active); in the assay with HT-29 it was < 0.01 µM (active); in the assay on K562 it was 0.0101 µM (active); with LOX IMVI, < 0.01 µM (active). Also, the GI50 in the assay on MCF7 was < 0.01 µM (active); in the assay with MDA-MB-231, 0.417 µM (active); in the assay on MDA-MB-435, < 0.01 µM (active); in the assay on MOLT-4 it was < 0.01 µM (active); with RPMI-8226, < 0.01 µM (active); in the assay with RXF 393, < 0.01 µM (active). Also, the GI50 in the assay with SF-268 is < 0.01 µM (active); in the assay with SF-539 it was < 0.01 µM (active); with SK-MEL-5, < 0.01 µM (active); in the assay on SR, < 0.01 µM (active); in the assay with SW-620 it was 0.0101 µM (active); in the assay with T47D, < 0.01 µM (active). In addition, the GI50 in the assay on UACC-257 is < 0.0391 µM (active).
